Experimental data: PMC7778589, “Photosensitizer-based multimodal PSMA-targeting ligands for intraoperative detection of prostate cancer” (Theranostics, 2021)

What was measured:
[1] = Lipophilicity, PBS/n-octanol; format: physicochemical; details: radiolabeled ligand
Method: Tubes were vortexed vigorously for 1 min and centrifuged for 5 min at 201×g for phase separation. The concentration of radioactivity in a defined volume of each layer was measured in a well-type gamma-counter.

[2] = molecular target: T1, PSMA-expressing LS174T cells (LS174T-PSMA) (Homo sapiens, UniProt Q04609); assay: Binding and internalization assay with 111In-labeled ligands; format: cell-based; details: 2 h 37 °C
T1 construct: expressed in transfected cells; host or cells: LS174T colon carcinoma cells (human), stably transfected with pcDNA3.1-hPSMA
T1 sequence (Q04609 whole entry): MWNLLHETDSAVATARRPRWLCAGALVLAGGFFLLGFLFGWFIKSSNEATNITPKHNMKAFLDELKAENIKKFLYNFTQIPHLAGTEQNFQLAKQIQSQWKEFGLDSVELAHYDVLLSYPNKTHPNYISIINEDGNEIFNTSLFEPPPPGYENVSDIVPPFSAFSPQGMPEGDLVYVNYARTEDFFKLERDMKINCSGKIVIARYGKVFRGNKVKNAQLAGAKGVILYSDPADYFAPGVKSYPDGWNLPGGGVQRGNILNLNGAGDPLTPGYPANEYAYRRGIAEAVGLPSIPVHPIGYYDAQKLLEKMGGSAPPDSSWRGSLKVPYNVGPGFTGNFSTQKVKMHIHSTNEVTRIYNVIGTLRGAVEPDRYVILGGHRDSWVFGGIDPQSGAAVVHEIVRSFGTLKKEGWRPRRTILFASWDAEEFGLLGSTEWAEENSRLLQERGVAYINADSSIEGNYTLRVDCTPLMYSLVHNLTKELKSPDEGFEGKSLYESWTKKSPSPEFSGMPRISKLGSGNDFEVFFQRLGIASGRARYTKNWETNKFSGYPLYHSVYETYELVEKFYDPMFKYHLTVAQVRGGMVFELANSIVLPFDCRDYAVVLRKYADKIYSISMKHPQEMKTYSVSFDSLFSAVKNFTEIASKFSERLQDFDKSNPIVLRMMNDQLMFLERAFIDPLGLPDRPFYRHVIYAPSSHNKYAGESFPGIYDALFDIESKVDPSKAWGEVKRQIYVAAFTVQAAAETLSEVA
Method: Cell lines were purchased from the American Type Culture Collection. LS174T colon carcinoma cells were stably transfected with human PSMA using the plasmid pcDNA3.1-hPSMA and cultured in RPMI 1640 medium supplemented with 2 mM glutamine, 10% FCS, and 0.3 mg/ml G418 at 37 °C in a humidified atmosphere with 5% CO2 [5].
Binding and internalization characteristics of all ligands were compared using LS174T-PSMA and wildtype LS174T cells. Cells were cultured to confluency in 6-wells plates followed by incubation at 37 °C for 2 h in 1 ml binding buffer (RPMI/0.5% BSA) with 50,000 counts per minute (cpm) of ^111In-labeled ligand (0.1-0.25 pmol/well). Nonspecific binding was determined by coincubation with 2-(phosphonomethyl)pentane-1,5-dioic acid (2-PMPA, 21.57 µM). PSMA-specific binding was defined as nonspecific binding subtracted from total binding. To retrieve the membrane-bound fraction, cells were washed with PBS twice and incubated with acid buffer (0.1 M acetic acid, 154 mM NaCl, pH 2.6) for 10 minutes at 0 °C. After incubation, the membrane bound fraction (in acid buffer) was collected, cells were washed, lysed with 0.1 M NaOH and cell lysis (intercellular activity) was collected. Membrane-bound activity and intercellular activity fractions were measured in a gamma-counter (2480 WIZARD^2 Automatic Gamma Counter, PerkinElmer), [25]. Human serum was used to determine the in vitro serum stability of the multimodal ligands (0.8 µg/ml serum, 5 MBq/μg labeling). After incubation for 2 h at 37°C, serum proteins were precipitated by adding a 1:1 (v/v) volume of acetonitrile followed by 5 min of centrifugation at 3220×g. Stability was evaluated by RP-HPLC analysis after 2 h of incubation at 37 °C. […] Experimental details are described in the supplementary materials and methods.

[3] = tested on: LS174T-PSMA and LS174T xenografts; assay: Biodistribution of 111In-labeled multimodal ligands; format: in vivo, BALB/c nude mice; details: 0.3 nmol, 2 h p.i.
Method: Animal experiments were performed in 8-10 weeks old male BALB/c nude mice (Janvier). Animals were housed in individually ventilated cages (Blue line IVC, 4-5 mice per cage) under nonsterile standard conditions with cage enrichment present and free access to chlorophyll-free animal chow (Sniff GmbH) and water. Mice were subcutaneously inoculated with 3.0 x 10^6 LS174T-PSMA cells in the left flank and 1.5 × 10^6 LS174T cells in the right flank, diluted in 200 μL of complete RPMI 1640 medium. Eleven days after tumor cell inoculation when xenografts were approximately 0.1 cm^3, tracers were injected intravenously via the tail vein. The researchers were not blinded for the experimental groups and tumor-bearing mice were block-randomized into groups based on tumor size. All experiments were approved by the institutional Animal Welfare Committee of the Radboud university medical center and were conducted in accordance to the guidelines of the Revised Dutch Act on Animal Experimentation.
Mice were injected intravenously with 10 MBq ^111In-labeled PSMA ligands (0.3 nmol, molar activity 33.3 MBq/nmol) in PBS/0.5% BSA. Two hours post injection, mice were euthanized by CO2/O2-asphyxation and images were acquired with the IVIS fluorescence imaging system (Xenogen VivoVision IVIS Lumina II, Caliper Life Sciences), using an acquisition time of 10 s. Subsequently, µSPECT/CT images were acquired (U-SPECT II, MILabs) with a 1.0 mm diameter pinhole mouse collimator tube [26]. Mice were scanned for 30 min followed by a CT scan (spatial resolution 160 μm, 65 kV, 615 μA) for anatomical reference. µSPECT/CT scans were reconstructed with MILabs reconstruction software, using an ordered-subset expectation maximization algorithm, energy windows 154 - 188 keV and 220-270 keV, 3 iterations, 16 subsets, voxel size of 0.4 mm. SPECT/CT scans were analyzed and maximum intensity projections (MIPs) were created using the Inveon Research Workplace software version 4.1 (Siemens Preclinical Solutions). NIRF images were analyzed using Living Image software version 4.2 (Caliper Life Sciences). Tissues of interest were dissected, weighed and measured for radioactivity in a gamma-counter as described above. In the fluorescence-guided surgery feasibility study, pre-operative imaging was performed to visualize tumor tissue. After white light resection, NIRF imaging was repeated to assess if any remaining tumor was present.

| LogD [1] | Internalized fraction [2] | Membrane bound fraction [2] | Adrenals [3] [%ID/g] | Blood [3] [%ID/g] | Bone [3] [%ID/g] | Bone marrow [3] [%ID/g] | Duodenum [3] [%ID/g] | Heart [3] [%ID/g] | Kidney [3] [%ID/g] | Liver [3] [%ID/g] | Lung [3] [%ID/g] | Muscle [3] [%ID/g] | Pancreas [3] [%ID/g] | Prostate [3] [%ID/g] | Salivary glands [3] [%ID/g] | Spleen [3] [%ID/g] | Stomach [3] [%ID/g] | Tumor+ LS174T-PSMA [3] [%ID/g] | Tumor- LS174T [3] [%ID/g] | SMILES | other results |
| --- | --- | --- | --- | --- | --- | --- | --- | --- | --- | --- | --- | --- | --- | --- | --- | --- | --- | --- | --- | --- | --- |
| -2.4 ± 0.13 | 1.8 ± 0.03 | 0.5 ± 0.05 | 1.5 | 0.3 | 0.2 | 0.4 | 0.3 | 0.3 | 59.9 | 0.6 | 0.5 | 0.2 | 0.2 | 0.5 | 0.4 | 0.9 | 0.3 | 11.5 | 0.4 | C[Si](C)(CCC[N+](CCCS(=O)(=O)O)(CCCS(=O)(=O)O)CCCS(=O)(=O)O)O[Si-2]123(O[Si](C)(C)CCC[N+](CCCS(=O)(=O)O)(CCCS(=O)(=O)O)CCCS(=O)(=O)O)n4c5c6ccccc6c4N=C4c6cccc(OCCCOC(=O)NCCCCCC(=O)NCCCC[C@H](NC(=O)CCOCCOCCOCCOCCNC(=O)CCC(C(=O)O)N7CCN(CC(=O)O)CCN(CC(=O)O)CCN(CC(=O)O)CC7)C(=O)N[C@H](Cc7ccccc7)C(=O)N[C@@H](CCC(=O)O)C(=O)N[C@@H](CCC(=O)O)C(=O)NCCCCCC(=O)NCCCC[C@H](NC(=O)N[C@@H](CCC(=O)O)C(=O)O)C(=O)O)c6C(=[N+]41)N=c1c4ccccc4c(n12)=NC1=[N+]3C(=N5)c2ccccc21.[Na+].[Na+].[Na+].[Na+] (some centres unmarked) [NJ26] | Tumor/Blood ratio [3]: 49.1; Tumor/Kidney ratio [3]: 0.2; Tumor/Liver ratio [3]: 21.3; Tumor/Muscle ratio [3]: 116.4; Tumor/Negative tumor ratio [3]: 31.7; Tumor/Prostate ratio [3]: 29.4; Tumor/Salivary gland ratio [3]: 35; Tumor/Spleen ratio [3]: 14.2 |
| -2.3 ± 0.11 | 1.1 ± 0.05 | 0.3 ± 0.04 | 0.7 | 0.2 | 0.2 | 0.4 | 0.2 | 0.3 | 51.4 | 0.6 | 0.3 | 0.1 | 0.2 | 0.3 | 0.3 | 0.6 | 0.2 | 9.1 ± 2 | 0.4 | C[Si](C)(CCC[N+](CCCS(=O)(=O)O)(CCCS(=O)(=O)O)CCCS(=O)(=O)O)O[Si-2]123(O[Si](C)(C)CCC[N+](CCCS(=O)(=O)O)(CCCS(=O)(=O)O)CCCS(=O)(=O)O)n4c5c6ccccc6c4N=C4c6cccc(OCCCOC(=O)NCCCCCC(=O)NCCCC[C@H](NC(=O)CCOCCOCCOCCOCCNC(=O)CN7CCN(CC(=O)O)CCN(CC(=O)O)CCN(CC(=O)O)CC7)C(=O)N[C@H](Cc7ccccc7)C(=O)N[C@@H](CCC(=O)O)C(=O)N[C@@H](CCC(=O)O)C(=O)NCCCCCC(=O)NCCCC[C@H](NC(=O)N[C@@H](CCC(=O)O)C(=O)O)C(=O)O)c6C(=[N+]41)N=c1c4ccccc4c(n12)=NC1=[N+]3C(=N5)c2ccccc21.[Na+].[Na+].[Na+].[Na+] [NJ27] | Tumor/Blood ratio [3]: 62.6; Tumor/Kidney ratio [3]: 0.2; Tumor/Liver ratio [3]: 15.9; Tumor/Muscle ratio [3]: 106.4; Tumor/Negative tumor ratio [3]: 27.1; Tumor/Prostate ratio [3]: 32.7; Tumor/Salivary gland ratio [3]: 33.2; Tumor/Spleen ratio [3]: 17.3 |
